Source: patent US10905702B2 (priority 2016, dated 2021)
Read-outs that look alike come from different tables or passages of the source.

How the values were obtained:
[1] = molecular target: T1, rhGal3 binding onto A549 cells (Homo sapiens, UniProt P17931); experiment: Flow cytometry of rhGal3 binding to A549 cells and its inhibition; format: cell-based
T1 construct: made in house; host or cells: Escherichia coli BL21 (DE3)

SOCS1 = format: cell-based, human; details: 15 μg/ml, 1 h
RIG1 = format: cell-based, human
[2] = system: ERK, AKT, p38 MAPK, STAT1 and NF-κB phosphorylation in A549 cells; format: cell-based, human
A549 cells = format: cell-based, human; details: for extracellular cytokine levels: A549 cells, treatment alone vs untreated cells, FIG. 7
[3] = system: SOCS1, SOCS3, SOCS4 expression in A549 cells; experiment: SOCS expression in A549 cells incubated with rhGal3 with or without TDG (quantitative realtime PCR); format: cell-based, human
Description: A549 cells were grown in 12-well plates and incubated with 0˜30 μg/ml of rhGal3 for 1 hour. After washing, RNA was extracted from the cells and subjected to reverse-transcription, followed by quantitative realtime PCR with designed primers for SOCS1, SOCS3, SOCS4, and beta-actin. Ct values were calculated and the relative expression level was calculated as 2^(Ct actin−Ct target).

recombinant human Gal3 = molecular target: T2, recombinant human Gal3 (Homo sapiens, UniProt P17931); experiment: Inhibition of hGal3 binding to asialofetuin (microtiter plate); details: biotinylated rhGal3 5 ug/ml pre-mixed with inhibitor; TDG 5 mM; Lac 50 mM; FIG. 12
T2 construct: made in house; host or cells: Escherichia coli BL21 (DE3)
Description: Ninety-six well microtiter plates were coated with 1 ug/well of asialofetuin (10 μg/ml in PBS, 100 ul each well) for 3 h at 37° C., washed and blocked with 3% BSA in PBS overnight at 4° C. […] The reaction was stopped with 1 M HCl and the optical density (OD) at 450 nm from each well was measured by SpectraMax 340 plate reader (Molecular Device).

[4] = hGal3 10 μg/ml pre-mixed with 0~10 mM disaccharide
[5] = NeuK-treated A549 cells, 15 μg/ml
[6] = A549 cells pre-exposed to NeuK, 15 μg/ml
[7] = A549 cells, treatment alone, vs control

T1 sequence (P17931 whole entry): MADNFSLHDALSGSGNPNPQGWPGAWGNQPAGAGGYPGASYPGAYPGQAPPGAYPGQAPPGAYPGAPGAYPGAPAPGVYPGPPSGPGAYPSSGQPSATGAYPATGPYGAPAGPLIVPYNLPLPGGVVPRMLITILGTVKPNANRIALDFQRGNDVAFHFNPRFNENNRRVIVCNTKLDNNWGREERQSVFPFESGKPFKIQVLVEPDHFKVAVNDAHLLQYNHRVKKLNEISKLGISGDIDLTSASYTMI
T2 sequence (P17931 whole entry): as above

Question: Which “inhibition of hGal3 binding onto A549 cells (MFI)” value (“inhibition … (MFI)” for short) [1, 4] does the source give for `CC(=O)N[C@H]1C(O)O[C@H](CO)[C@H](O)[C@@H]1O[C@@H]1O[C@H](CO)[C@H](O)[C@H](O)[C@H]1O` (stereo partly shown) [TF disaccharides, Galβ1,3GalNAc] here?
Answer: inhibit the binding

Question: Which results are given for rhGal1: recombinant human galectin-1?
Answer: SOCS1 expression (SOCS1; A549 cells pre-treated with NeuK): returned to the control levels; SOCS1 expression, decrease (SOCS1; untreated A549 cells): 20-30%; RIG1 expression, increase (RIG1; NeuK-pretreated A549 cells, 15 μg/ml): about 12 fold; RIG1 expression, decreased to (RIG1; exposure alone, A549 cells, 15 μg/ml): about 50 % of the unexposed control; phosphorylation level of ERK [2, 5]: increased; phosphorylation level of STAT1 [2, 5]: increased; phosphorylation level of p38 [2, 5]: remained at the level of the NeuK-treated A549 control; phosphorylation level of AKT, decreased to ([2]; untreated A549 cells, 15 μg/ml): 50 % of the control level; IL-6 level in culture supernatant, increase (A549 cells; [6]): 4 fold; IL-8 level in culture supernatant, increase (A549 cells; [6]): 5 fold; IL-15 level in culture supernatant, increase (A549 cells; [6]): 25 fold; extracellular cytokine levels (A549 cells): the levels of IFNγ, IL-6, IL-8, and IL-10 increased

Question: What does the source list for rhGal3: recombinant human galectin-3?
Answer: SOCS expression (SOCS1, SOCS3, SOCS4) ([3]; 0~30 μg/ml rhGal3, 1 hour, FIG. 16): suppress SOCS expression in dose-dependent manner; SOCS1 expression, downregulated (SOCS1; untreated or NeuK-treated A549 cells): 60-70 % of the control levels; RIG1 expression, downregulated to (RIG1; NeuK treatment followed by exposure, 15 μg/ml): about 20 % of the unexposed controls; RIG1 expression, increase (RIG1; treatment alone, A549 cells): about 4 fold; phosphorylation level of AKT [2, 7]: up to 4 fold; phosphorylation level of ERK [2, 7]: increased; phosphorylation level of STAT1 [2, 7]: increased; phosphorylation level of p38 [2, 7]: remained unchanged; phosphorylation of p38, decrease ([2]; NeuK-treated A549 cells compared with effect on untreated cells): more than 50%; phosphorylation level of AKT [2, 5]: 1.5 fold; phosphorylation level of ERK [2, 5]: 3 fold; IL-1β, IL-10 and IL-12 levels in culture supernatant (A549 cells; [6]): had no effect; IL-6 level in culture supernatant, increase (A549 cells; [6]): 8 fold; IL-8 level in culture supernatant, increase (A549 cells; [6]): 15 fold; IL-15 level in culture supernatant, increase (A549 cells; [6]): 20 fold; extracellular cytokine levels (A549 cells): increased levels of IFNγ, TNFα, IL-10, IL-6, and IL-8

Question: How did the “inhibition … (MFI)” value [1, 4] turn out when `OC[C@H]1O[C@@H](S[C@@H]2O[C@H](CO)[C@H](O)[C@H](O)[C@H]2O)[C@H](O)[C@@H](O)[C@H]1O` [TDG, thiodigalactoside] was run?
Answer: inhibit the binding

Question: What about the “inhibition … (MFI)” value ([1]; hGal3 pre-mixed with Lac 50 mM, TDG 50 mM or 10 mM) of the same molecule?
Answer: inhibit binding well

Question: What about the “inhibition of rhGal3 binding to asialofetuin (OD 450 nm)” value (recombinant human Gal3) of the same molecule?
Answer: partially inhibit

Question: And the “SOCS expression (SOCS1, SOCS3, SOCS4)” value ([3]; 30 μg rhGal3 pre-mixed with TDG 50 mM, one hour, FIG. 17)?
Answer: offset all the galectin's effect in suppressing SOCS expression

Question: What about the SOCS expression ([3]; disaccharide (TDG 50 mM) alone, one hour) of the same molecule?
Answer: some positive effect in SOCS expression
